In a melting point compilation (Tetko et al.; mined from patent text by program, amines drawn as free bases though some values may be those of a salt) one finds melting point data, which are given here for 92 compounds.

Some results are limits rather than exact numbers.

For orientation: melting point means the temperature of the solid-liquid transition. `CC(C)Cn1c(CCCCNC(=O)Nc2ccccc2)nc2c(N)nc3c(c21)CCCC3` registered a melting point of 197 to 199 °C.
Turning to `CC(=O)c1oc2ccc(Br)cc2c1NC(=O)c1cnoc1C`, the melting point lay within 206 to 208 °C.
In the case of `CC1(C)CCC(C)(C)c2cc(-c3csc(C=CC(=O)O)c3)ccc21` it was 182 to 185 °C.
In the case of `OCCNCCNc1nnc(NCCNCCO)c2cc3ccccc3cc12`, the melting point was in the range of 129 to 131 °C.
On to `CCC1(CCCCN2CCN(c3ccc(Cl)cc3)CC2)C(=O)Nc2ccccc21` (configuration not stated), for which the melting point was 145 to 146 °C.
Consider `CC(C)(C)C(=O)N1CCN(c2ccc(C(=O)CSc3ccnc4ccccc34)cc2)CC1`, for which the melting point fell in the range of 174 to 176 °C.
As to `CN1CCCC1=NC(=O)Nc1ccc(Br)cc1`, the melting point was 134 to 136 °C.
For `COc1ccc(Sc2ccncc2)c([N+](=O)[O-])c1` the value was 57 to 59 °C.
`ON=C1c2ccccc2CCC1Br` (configuration not stated): the melting point lay in the range of 125 to 131 °C.
Compound `O=C(O)COc1nnc(C(F)(F)F)s1` came in with a melting point of 58 °C.
For `NC(=O)N1C(=O)C(C(=O)c2cc(Cl)cs2)c2cc(C(F)(F)F)ccc21` (configuration not stated) the value was 164 to 166 °C.
As to `CC(C)(C)OC(=O)c1ncn2c1C(C)(C)N(C(=O)N1CCCC1)c1cc(F)ccc1-2`, the melting point lay in the range of 168 to 170 °C.
In turn, `CCOc1cc(=O)n(C)c2ccccc12` registered a melting point of 80 to 82 °C.
`CN1C(=O)CC[C@]2(C)c3ccc(-c4cnc5ccccc5c4)cc3CC[C@@H]12` gave a melting point of 180 to 185 °C.
In the case of `N#Cc1cnc2c(sc3ccc([N+](=O)[O-])cc32)c1O`, the melting point is > 305 °C.
Compound `O=C(O)c1c(-c2ccc(Cl)c(Cl)c2)csc1N1C(=O)c2ccccc2C1=O` came in with a melting point of 198 to 199 °C.
Take `NC(=O)c1cc2c(Oc3ccc(C(=O)N4CCOCC4)cc3)cncc2s1`: the melting point is > 260 °C.
Compound `CCOc1nn(-c2ccc(C(F)(F)F)cn2)cc1CCCOc1ccc(CCC(=O)O)cc1OCc1ccccc1` yielded a melting point of 115 to 116 °C.
Turning to `O=C(Nc1ccc(F)c(F)c1)c1cc(-c2ccc(F)cc2F)ccc1O`, the melting point was 231 to 232 °C.
On to `N#Cc1cc(F)ccc1-c1cncc(OC2SCC(O)C(O)C2O)c1` (configuration not stated), for which the melting point was in the range of 198 to 200 °C.
Compound `CCCCCCCCCCNC(=O)CCCCC(=O)OO` yielded a melting point of 77 to 85 °C.
`Cc1nnc(-c2sc(N3CCN(Cc4ccc(C(F)(F)F)cc4)C3=O)nc2C)[nH]1` showed a melting point of 273 to 274 °C.
The compound `Cc1onc(-c2ccccc2Cl)c1CCC(=O)O` displayed a melting point of 79 to 81 °C.
Turning to `Cc1oc(C(C)(C)C)nc1COc1ccc(CC(OC(C)C)C(=O)O)c2sccc12` (configuration not stated), the melting point was in the range of 166 to 167 °C.
For `COC(=O)c1cc2ccc(C(=O)O)cc2[nH]1` the value was 270 to 272 °C; for `CS(=O)(=O)Nc1ccc2c(c1)C(=O)C(C1CCN(CCc3ccc4nonc4c3)CC1)C2` (configuration not stated), 214 to 217 °C.
`N#Cc1ccc(CCCN)cc1`: the melting point is 72 to 74 °C.
Turning to `Oc1ccc(-c2ccc3ccccc3c2)nc1`, the melting point was 168 to 169 °C.
Turning to `Fc1cccc(-c2ncc(-c3cnc(-c4cccnc4)[nH]3)cn2)c1`, the melting point stood at 309 °C.
On to `CCOC(=O)c1ccccc1C(=O)c1cccc(NC(=O)c2ccn3c2CSC3c2cccnc2)c1` (configuration not stated), for which the melting point came to 150 °C.
For the compound `NC(=O)CN1CCC1=O`, the melting point was 112 to 113 °C.
In the case of `COC(=O)C1CC(C#N)(c2cccs2)CCC1=O` (configuration not stated) it was 76 to 78 °C.
`Cn1c2ccccc2c2c(C(=O)O)c(C(=O)O)ccc21` displayed a melting point of 294 °C.
As for `Cn1cc(CO)c(=O)c2cc(F)ccc21`, the melting point was 209 to 212 °C.
The compound `CCn1nc2c(N)nc3ccccc3c2c1CC(C)(C)N` came in with a melting point of 234 to 235 °C.
For the compound `COc1cc2c(C)csc2c(Cl)c1Cl`, the melting point fell in the range of 122 to 124 °C.
In the case of `CC1(COc2ccc([N+](=O)[O-])cc2)CC(O)c2cc(O)c(C(C)(C)C)cc2O1` (configuration not stated) it was 194 to 201 °C; in that of `O=C(CCc1ccc(F)cc1)c1cccnc1F`, 73 to 74 °C; in that of `CCC(C)c1ccc2c(c1)C(=O)N(c1ccc3c(ccn3C)c1)C2` (configuration not stated), 146 to 147 °C.
In turn, `CC(C)(C)OC(=O)NC(Cc1cnc2ccccc2c1)C(=O)O` (configuration not stated) yielded a melting point of 159 to 160 °C.
`Cc1cc(-c2cnn3c(C(F)(F)F)cc(-c4ccc(C(F)(F)F)c(OCC(F)(F)F)c4)nc23)ccn1` gave a melting point of 201 °C.
In the case of `OC(CCc1nc(CCl)no1)c1ccc(-c2ccccc2)cc1` (configuration not stated) it was 48 to 49 °C; in that of `O=C(O)c1cc(C(=O)O)c2c(c1)C(C(=O)O)CCN2` (configuration not stated), 240 to 241 °C.
For `CS(=O)(=O)N(CCc1ccc(Cl)cc1)Cc1ccncc1` the value was 96 to 99 °C; for `O=C1CC(=Cc2ccccc2)C(=O)O1`, 167 to 170 °C.
Compound `CCNC(=S)NS(=O)(=O)c1cnccc1NC1CCCCCCC1` returned a melting point of 196 to 198 °C.
Consider `Nc1ccc(C#Cc2ccc(C#Cc3ccccc3)cc2[N+](=O)[O-])cc1`, for which the melting point lay within 166 to 168 °C.
Take `CC1COc2cccc([N+](=O)[O-])c2N1` (configuration not stated): the melting point stood at 60 °C.
`CC(N1C(=O)C(=O)N(c2ccc(Br)cc2)C1=S)C(C)(C)C` (configuration not stated) had a melting point of 207 to 208 °C.
In turn, `CCCC[C@H](NC(=O)[C@H](CC(C)C)NC(=O)c1cccc(F)c1F)C(=O)CSCc1ccco1` displayed a melting point of 120 to 122 °C.
In the case of `CC(C)(C)c1cc(NC(=O)C=Cc2ccccc2)cc(C(C)(C)C)c1O` it was 211 to 214 °C; in that of `C=CCn1c(C)c(C)c2cnnc(OCc3ccc(F)cc3F)c21`, 125 to 126 °C.
In the case of `CCn1nc2c(N)nc3c(c2c1CCC1CCCCC1)CCCC3` it was 177 to 179 °C; in that of `COc1ccc(-c2nc3ccc(C(=O)O)cc3[nH]2)cc1C12CC3CC(CC(C3)C1)C2`, 358 to 359 °C; in that of `O=C1CCOc2ccc(O)cc21`, 133 to 136 °C.
`O=C1CN(c2ccccc2)C(=O)N1C1CCCCC1` gave a melting point of 196 °C.
In the case of `COc1c(F)cc2c(=O)c(C(=O)O)cn(-c3cc(N)c(F)cc3F)c2c1C` it was > 280 °C; in that of `CN(c1nc(-c2cc3ccccc3[nH]c2=O)cs1)S(=O)(=O)c1ccc(Br)cc1`, 280 to 282 °C; in that of `CCCCCC/C=C/CCCCCCCCCC(=O)Nc1nc(CC(=O)O)cs1`, 116 to 117 °C.
Compound `CC1(C)OC(=S)Nc2ccc(-c3ccc(C#N)[nH]3)cc21` returned a melting point of 261 to 262 °C.
`CCn1cc(C(=O)O)c(=O)c2cc(F)c(N)nc21` displayed a melting point of 299 to 303 °C.
In the case of `COC(=O)CCN1CCC(=C2c3sccc3CCn3ccnc32)CC1` it was 108 °C.
On to `Nc1sc2c(c1C(=O)c1ccc(Cl)s1)CCN(Cc1ccccc1)C2`, for which the melting point fell in the range of 81 to 83 °C.
In the case of `N#Cc1ccc(Oc2ccc(-c3ccc(Oc4ccc(C#N)c(C#N)c4)cc3)cc2)cc1C#N` it was 230 to 232 °C; in that of `Cc1cc(C)c2cccc(OCc3c(C)ccc(N(C)C(=O)CN)c3C)c2n1`, 145 to 148 °C.
Regarding `O=C(O)C1=NN(c2ccc(Cl)cc2)C(c2ccccc2)C1` (configuration not stated), the melting point was in the range of 177 to 179 °C.
`O=C(O)C(Cl)(Cl)Cc1ccccc1` showed a melting point of 173 to 176 °C.
For the compound `COC(=O)C1=C(Cl)C(=NO)CC(c2ccc(Cl)c(OC)c2F)N1` (configuration not stated), the melting point is 174 to 176 °C.
In the case of `CS(=O)(=O)c1ccc(-c2cnn(CC(=O)c3ccc(OC(F)(F)F)cc3)c(=O)c2-c2ccc(F)cc2)cc1` it was 160 to 161 °C; in that of `CC(c1cc(Cl)ccc1O)c1cc(Br)ccc1O` (configuration not stated), 167 °C.
`CCOc1cc(O)nc(N(C)C)n1` yielded a melting point of 194 to 195 °C.
In the case of `C=Cc1ccc(C#N)cn1` it was 29 to 30 °C; in that of `O=C(Nc1ccc(S(=O)(=O)c2ccc([N+](=O)[O-])cc2)cc1)N[C@@H](Cc1ccc(NC(=O)c2c(Cl)cccc2Cl)cc1)C(=O)O`, 223 °C.
The compound `O=C(OSc1ccccn1)c1ccc(Cc2ccc(F)cc2)o1` yielded a melting point of 88 to 89 °C.
In the case of `CC(=O)c1nc(C)c[nH]1` it was 113 to 115 °C; in that of `OC(Cc1ccccc1)(Cn1cncn1)c1ccccc1` (configuration not stated), 134 °C; in that of `Cc1cn(C)c2c1N(C(=O)CN(C)C)c1ccccc1NC2=O`, 219 to 220 °C.
On to `O=C(Cl)[C@H](Cc1ccccc1)NS(=O)(=O)c1ccc2ccccc2c1`, for which the melting point was in the range of 141 to 143 °C.
`COc1ccc(/C=C/C(=O)c2ccc(C(=O)O)cc2)c(-c2cccs2)c1` had a melting point of 209 to 211 °C.
Consider `CCCCc1nc2c(N)nc(C)c(C)c2n1CCCCNC(=O)c1ccccc1`, for which the melting point fell in the range of 128 to 129 °C.
The compound `N/C(=C1/Sc2ccccc2C1=O)c1ccccc1` came in with a melting point of 121 to 122 °C.
On to `O=S(=O)(NCCCCOc1ccc(-n2ccnc2)cc1)c1cccc2cccnc12`, for which the melting point was in the range of 131 to 133 °C.
In the case of `Cc1ncc(C(=O)N2CCCC2)s1`, the melting point was in the range of 71 to 72 °C.
Compound `CC(=O)OC1CN=C(c2ccccc2Cl)c2ccccc2N(C)C1` (configuration not stated) returned a melting point of 129 to 131 °C.
`CCc1cc(Oc2ccc(S(C)(=O)=O)nc2)cc2cc(C3=NCC(CC(=O)NC)S3)[nH]c12` (configuration not stated) came in with a melting point of 189 to 190 °C.
Compound `COC(=O)c1c(Oc2ccccc2N)c2ccccc2n1C` registered a melting point of 103 to 105 °C.
On to `COc1cc(OC)c(-c2cc3ccccc3s2)cc1/C=C/C(=O)c1ccc(C(N)=O)cc1`, for which the melting point lay in the range of 240 to 241 °C.
Compound `COC(=O)c1ccc(Cc2csc3ccc(NC(=O)OC4CCCC4)cc23)c(OC)c1` returned a melting point of 163 to 164 °C.
Consider `CN1CC2CC(=O)NC3C=CC=C4Cc5ccccc5C(C1)C2N43` (configuration not stated), for which the melting point was in the range of 165 to 168 °C.
`COC(=O)CCc1c[nH]c2ccccc12`: the melting point was in the range of 162 to 164 °C.
`Cc1cc(-n2ccnc2)c2cccc(OCc3c(Cl)ccc(S(=O)(=O)N4CCC[C@H]4C(=O)N(C)CCN(C)C)c3Cl)c2n1` had a melting point of 98 °C.
In the case of `O=S(=O)(CCl)N(Cc1cccnc1)c1ccc(Cl)cc1` it was 98 to 100 °C.
